Consider one molecule from PMC8391312 (Biomedicines, 2021).

Each structure is given as a SMILES string.

The experiment relates to Cav1.2/1.3 channels. Format: cell-based, rat.

Turning to `[Cl][Cd][Cl]` [Cd^2+, CdCl2], the “block of current amplitude” value was 98 ± 0.8%.
